Ten compounds from PubChem BioAssay (NCI) can be followed below.

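96-well plates; 48 h exposure; 5 concentrations. Endpoints by linear interpolation between flanking doses. Not reached: highest tested concentration assigned. At the TGI there is no net growth.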

Common to all, as to test: NCI tumour cell line growth inhibition, 48 h
Test [1] relates to SW-620 colon.
Test [2] has as its system MDA-MB-231 breast.
Test [3] concerns M14 melanoma.
Test [4] deals with COLO 205 colon.
Test [5] has as its system OVCAR-5 ovarian.
Test [6] has as its system OVCAR-3 ovarian.
Test [7] concerns SN12C renal.
The subject of test [8] is OVCAR-4 ovarian.
Test [9] deals with HS 578T breast.
Test [10] relates to KM12 colon.
The subject of test [11] is SR leukemia.
Test [12] relates to HCC-2998 colon.
Test [13] concerns HOP-62 NSCLC.
The subject of test [14] is ACHN renal.
Test [15] concerns MALME-3M melanoma.

`C/C(C=O)=N\Nc1cc(C)c2ccccc2n1`: the TGI amounted to 72.8 µM in test [1]; 32.3 µM in test [2]; 31.8 µM in test [3]; 33.2 µM in [4]; 34.3 µM in test [5]; 29.1 µM in test [6]. Also, the TGI in test [7] was 33 µM; in [8], 27.8 µM; in test [9], 46.2 µM; in [10] it was 28.5 µM; in test [11], 4.17 µM; in [12], 29.3 µM. Moreover, the results for the TGI in test [13] and in test [14] were 29.2 µM and 29.9 µM, respectively.
`CCCCCCN(C(=O)Oc1ccccc1)C(C#N)c1ccccc1` (stereo not given): the TGI in test [1], in test [2], in [3], in [4], in [5] and in test [6] was greater than 100 µM each time. In addition, the TGI in test [7], in test [15], in test [8], in test [9], in [10] and in [11] was greater than 100 µM in each case. The TGI in [12], in test [13] and in test [14] was greater than 100 µM in each case.
Consider `CN(CCO)CC(=O)CC(O)(C(F)(F)F)C(F)(F)F`, for which the TGI in test [1] was greater than 100 µM; in test [2], greater than 100 µM; in test [3] it was greater than 100 µM; in test [4], greater than 100 µM; in test [5] it was greater than 100 µM; in [6] it was 87 µM. In addition, the TGI in test [15] is greater than 100 µM; in test [8], greater than 100 µM; in [9], 58.7 µM; in test [10], greater than 100 µM; in test [11] it was greater than 100 µM; in [12] it was greater than 100 µM. This compound yielded a TGI in [14] of 99.4 µM.
Regarding `CSc1nc(=S)[nH]c2n[nH]c(C)c12`, the TGI in test [1], in test [2], in test [3], in [4], in [5] and in test [6] was greater than 100 µM in each case. The TGI in test [7], in test [15], in test [8], in test [9], in [10] and in [11] was greater than 100 µM in each case. The compound further had a TGI in test [12] greater than 100 µM.
Turning to `CCn1c(=O)c2c(=O)[nH][nH]c2c2ccccc21`, the TGI in test [1], in test [2], in test [4], in test [5], in [6] and in test [7] was greater than 100 µM in each case. The TGI in test [15], in [8], in test [9], in test [10], in [11] and in test [12] was greater than 100 µM in each case. Besides, the TGI in test [13] and in test [14] was greater than 100 µM throughout.
As to `CN(C(=O)C1=CCCCCC1)c1ccccc1I`, the TGI in test [1] is greater than 100 µM; in [2], greater than 100 µM; in test [3], greater than 100 µM; in test [4], 37.6 µM; in test [5] it was greater than 100 µM; in test [6], greater than 100 µM. The TGI in [7] is greater than 100 µM; in test [8] it was 86.9 µM; in test [9], 35.5 µM; in [10] it was 93.9 µM; in [11], greater than 100 µM; in test [12], greater than 100 µM. Further, the TGI in [13] and in test [14] was greater than 100 µM throughout.
Regarding `N#C/C(=C\c1ccc(Cl)cc1)c1nc2ccccc2c(=O)[nH]1`, the TGI in [1], in [2], in test [3], in test [4], in test [5] and in test [7] was greater than 100 µM throughout. In addition, the TGI was greater than 100 µM in test [15]; greater than 100 µM in test [8]; 60.6 µM in test [9]; greater than 100 µM in [10]; greater than 100 µM in [11]; greater than 100 µM in test [12]. Further, the TGI in [13] and in test [14] was greater than 100 µM throughout.
Consider `CCC(=O)N(c1ccccc1)C(C)CN1CCC(O)(c2ccccc2)CC1` (stereo not given), for which the TGI in [2], in [3], in test [4], in test [5], in test [6] and in [7] was greater than 100 µM throughout. The TGI in test [15], in [8], in test [9], in test [11], in [13] and in test [14] was greater than 100 µM in each case.
As for `CC1=NC(=Cc2ccc(Cl)cc2)C(=O)N1n1c(-c2ccccc2)nc2ccccc2c1=O`, the TGI in [1], in test [2], in [3], in [4], in test [7] and in test [15] was greater than 100 µM throughout. The TGI is 57.3 µM in test [9]; greater than 100 µM in [10]; greater than 100 µM in test [11]; greater than 100 µM in test [12]; greater than 100 µM in test [13]; 46.7 µM in test [14].
Take `CC(=O)OCC(OC(C)=O)C(OC(C)=O)C(/C=N/N(C(C)=O)S(=O)(=O)c1ccc(/C=C2\NC(=O)NC2=O)cc1)OC(C)=O` (stereo not given): the TGI in test [1], in [2], in test [3], in test [4], in [5] and in test [6] was greater than 100 µM each time. Further, the TGI in [7], in [15], in test [8], in test [9], in test [11] and in test [12] was greater than 100 µM each time. Moreover, the TGI in [13] and in test [14] was greater than 100 µM each time.
